Measured values as given in patent publication US20020068346A1, “Modified inosine 5'-monophosphate dehydrogenase polypeptides and uses thereof” (priority 2000, published 2002).

Legend:
[1] = target: T1, “DKT”-IMPDH-II (Homo sapiens, UniProt P12268, DEL111-240/K241D/Q243T); experiment: Steady state enzyme kinetics: inhibition of IMPDH-DKT by XMP and MPA; assay type: biochemical; details: for Inhibition type: steady state kinetics
T1 construct: The full-length, human, type II impdh cDNAs were used as templates; made in house; host or cells: E. coli BL21(DE3), pET24a

[2] = system: conversion of NAD to NADH in the presence of IMP; experiment: Functional activity of modified IMPDH multimers: conversion of NAD to NADH measured spectrophotometrically at 340 nm; assay type: biochemical, human; details: partially purified protein, 0.40 mM IMP, 0.40 mM NAD, 37° C.
Procedure: Polypeptides of the modified IMPDH-DKT, -SPS, -SPT, and -AGRP were isolated and partially purified using a blue dye affinity chromatographic step. All steps were performed at 4° C. unless otherwise noted. The frozen cell pellets (e.g., described in Example 1) were thawed on ice, and resuspended in 10 mL of Buffer A (25 mM Tris, pH 8.2, 20 mM KCl, 10% glycerol (v/v), 1 mM EDTA, 5 mM DTT, and 1 μg/mL leupeptin). The cells were lysed by 2×20 second sonication pulses using a ¼″ Microtip on a Branson model 450 sonifier (set on 2.5 power setting), and excessive foaming was carefully avoided. […] The samples were evaluated for the presence of the modified IMPDH polypeptides and to approximate the purity using standard SDS-PAGE methods, with Coomassie blue staining. For each of the modified IMPDH polypeptides, it was determined that the purity of the Buffer C fractions contained approximately 75% modified IMPDH polypeptide. The total protein content was quantitated using the Bradford assay method (Bradford, M. M., 1976, Anal. Biochem., 72: 248), with Biorad protein reagent (product #500-0006) and using BSA as a protein standard.
To evaluate the functional activity of the modified IMPDH polypeptides, the conversion of NAD to NADH was measured spectrophotometrically at 340 nm, 37° C. […] The production of NADH was determined by δOD^340 (ε=6220 M^−1 cm^−1), measured for 5 min. […]

T1 sequence (P12268 with tags, fused parts or gaps DEL111-240/K241D/Q243T): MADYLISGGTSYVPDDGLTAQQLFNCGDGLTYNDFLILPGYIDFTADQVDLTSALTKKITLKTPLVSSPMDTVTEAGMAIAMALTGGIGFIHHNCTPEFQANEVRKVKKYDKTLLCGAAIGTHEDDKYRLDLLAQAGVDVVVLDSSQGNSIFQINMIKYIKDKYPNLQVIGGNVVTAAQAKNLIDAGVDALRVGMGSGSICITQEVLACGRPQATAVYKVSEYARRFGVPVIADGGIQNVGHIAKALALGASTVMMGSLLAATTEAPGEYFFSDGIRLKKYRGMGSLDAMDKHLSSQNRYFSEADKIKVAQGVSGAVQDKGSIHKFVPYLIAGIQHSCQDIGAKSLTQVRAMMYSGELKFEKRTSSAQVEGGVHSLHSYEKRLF

| Inhibition type [1] | Ki ([1]; buffer D, 50 nM protein) [µM] | Molecule | NADH produced [2] |
| --- | --- | --- | --- |
| Uncompetitive vs. IMP | – | COc1c(C)c2c(c(O)c1C/C=C(\C)CCC(=O)O)C(=O)OC2 [MPA, Mycophenolic acid] | – |
| Competitive vs. IMP | 67 ± 5 | O=c1[nH]c(=O)c2ncn([C@@H]3O[C@H](COP(=O)(O)O)[C@@H](O)[C@H]3O)c2[nH]1 [XMP, xanthosine-5′-monophosphate] | – |
| – | – | wild-type IMPDH holoenzyme: wild-type human type II IMPDH holo-enzyme, SEQ ID NO:49 [reference compound] | approximately 1.00 μmoles/min mg protein |
